In patent US10487093B2, “Heterocyclic compounds, in particular 2-oxo-4,4,5,5,6,6,7,7-octahydrobenzoxazole derivatives, and their use as antibacterial compounds” (priority 2016, dated 2019):
Values after ≈ are worked out from the molar mass of the structure shown. Where two headings read alike, the source gives them in different places.

Experiments:
[1] = tested on: Enterobacter cloacae NCTC 13406; assay: MIC, broth microdilution (CLSI) versus planktonic bacteria; type: cell-based; details: Enterobacter cloacae NCTC 13406, 16-20 h, mode of three independent experiments; for MIC: NCTC13406, read-out: MIC, Ecl NCTC 13406
E. coli MG1655 S83L = type: cell-based, Escherichia coli
E. coli NCTC 13476 = assay: MIC, broth microdilution (CLSI) versus planktonic bacteria; type: cell-based; details: Escherichia coli NCTC 13476, 16-20 h, mode of three independent experiments; for MIC: NCTC13476, read-out: MIC, Ec NCTC 13476
E. coli ATCC BAA-2452 = assay: as above; type: cell-based; details: Escherichia coli ATCC BAA-2452, 16-20 h, mode of three independent experiments; for MIC: read-out: MIC, Ec ATCC BAA 2452
[2] = tested on: Pseudomonas aeruginosa ATCC 27853; assay: as above; type: cell-based; details: Pseudomonas aeruginosa ATCC 27853, 16-20 h, mode of three independent experiments; for MIC: ATCC27853, read-out: MIC, Pa ATCC 27853
E. coli MG1655 = assay: as above; type: cell-based, Escherichia coli; details: for MIC: Escherichia coli, MG1655, read-out: MIC, Ec MG1655 WT
[3] = tested on: Streptococcus pneumoniae ATCC 49619; assay: as above; type: cell-based; details: Streptococcus pneumoniae ATCC 49619, 16-20 h, mode of three independent experiments; for MIC: ATCC49619, read-out: MIC, Sp ATCC 49619
[4] = tested on: human hepatic cell line (HepG2 ATCC HB-8065); assay: Human cell viability assay (CellTiter-Glo); details: for IC50: Homo sapiens, HepG2, 24 h, read-out: IC50 (μg/mL) HepG2
[5] = tested on: Staphylococcus aureus ATCC 29213; assay: MIC, broth microdilution (CLSI) versus planktonic bacteria; type: cell-based; details: Staphylococcus aureus ATCC 29213, 16-20 h, mode of three independent experiments; for MIC: ATCC29213, read-out: MIC, Sa ATCC 29213
E. coli MG1655 D87G = type: cell-based, Escherichia coli
[6] = tested on: Escherichia coli ATCC 25922; assay: MIC, broth microdilution (CLSI) versus planktonic bacteria; type: cell-based; details: Escherichia coli ATCC 25922, 16-20 h, mode of three independent experiments; for MIC: ATCC25922, read-out: MIC, Ec ATCC 25922
[7] = tested on: Acinetobacter baumannii NCTC 13420; assay: as above; type: cell-based; details: Acinetobacter baumannii NCTC 13420, 16-20 h, mode of three independent experiments; for MIC: NCTC13420, read-out: MIC, Ab NCTC 13420
[8] = tested on: Acinetobacter baumannii ATCC 19606; assay: as above; type: cell-based; details: Acinetobacter baumannii ATCC 19606, 16-20 h, mode of three independent experiments; for MIC: ATCC19606, read-out: MIC, Ab ATCC 19606
[9] = tested on: Haemophilus influenzae ATCC 49247; assay: as above; type: cell-based; details: Haemophilus influenzae ATCC 49247, 16-20 h, mode of three independent experiments; for MIC: ATCC49247, read-out: MIC, Hi ATCC 49247
[10] = compared to the isogenic parent strain E. coli MG1655, S83L mutation on DNA gyrase subunit GyrA
[11] = compared to the isogenic parent strain E. coli MG1655, D87G mutation on DNA gyrase subunit GyrA

Compound | MIC [1] | Fold increase in MIC, E. coli MG1655 S83L (E. coli MG1655 S83L; [10]) | MIC (E. coli NCTC 13476) | MIC (E. coli ATCC BAA-2452) | MIC [2] | MIC (E. coli MG1655) | MIC [3] | IC50 [4] | MIC [5] | Fold increase in MIC, E. coli MG1655 D87G (E. coli MG1655 D87G; [11]) | MIC [6] | MIC [7] | MIC [8] | MIC [9] | also measured
O=C1COc2ccc(N3C(=O)O[C@H]4C[C@@H](NCCCn5c(=O)ccc6ncc(OC(F)F)cc65)CC[C@@H]43)nc2N1 [Compound 93, 1-(3-{[(3aS,6S,7aS)-2-oxo-3-{3-oxo-2H,3H,4H-pyrido[3,2-b][1,4]oxazin-6-yl}-octahydro-1,3-benzoxazol-6-yl]amino}propyl)-7-(difluoromethoxy)-1,2-dihydro-1,5-naphthyridin-2-one] | 1 to 10 µg/mL (≈ 1.8 to 18 µM) | 1 fold | < 1 µg/mL | < 1 µg/mL | < 1 µg/mL | < 1 µg/mL | < 1 µg/mL | > 100 µg/mL | < 1 µg/mL | 1 fold | < 1 µg/mL | < 1 µg/mL | < 1 µg/mL | < 1 µg/mL | –
COc1cnnc(-c2cccc(CN[C@@H]3CC[C@@H]4[C@@H](C3)OC(=O)N4c3ccc4c(n3)NC(=O)CO4)c2O)c1 [Compound 72, (3aR,6R,7aR)-6-({[2-hydroxy-3-(5-methoxypyridazin-3-yl)phenyl]methyl}amino)-3-{3-oxo-2H,3H,4H-pyrido[3,2-b][1,4]oxazin-6-yl}-octahydro-1,3-benzoxazol-2-one] | 1 to 10 µg/mL (≈ 1.93 to 19.3 µM) | 0.5 fold | 1 to 10 µg/mL (≈ 1.93 to 19.3 µM) | < 1 µg/mL | 1 to 10 µg/mL (≈ 1.93 to 19.3 µM) | < 1 µg/mL | 1 to 10 µg/mL (≈ 1.93 to 19.3 µM) | 10 to 100 µg/mL (≈ 19.3 to 193 µM) | < 1 µg/mL | 0.5 fold | < 1 µg/mL | < 1 µg/mL | < 1 µg/mL | < 1 µg/mL | –
1-[(2S)-3-{[(3aR,6R,7aR)-2-oxo-3-{3-oxo-2H,3H,4H-pyrido[3,2-b][1,4]oxazin-6-yl}-octahydro-1,3-benzoxazol-6-yl]amino}-2-hydroxypropyl]-7-fluoro-1,2-dihydroquinoxalin-2-one & 1-[(2R)-3-{[(3aR,6R,7aR)-2-oxo-3-{3-oxo-2H,3H,4H-pyrido[3,2-b][1,4]oxazin-6-yl}-octahydro-1,3-benzoxazol-6-yl]amino}-2-hydroxypropyl]-7-fluoro-1,2-dihydroquinoxalin-2-one [Compound 94] | – | – | – | – | – | – | – | – | – | – | – | – | – | – | MIC, Ecl NCTC 13406 [1]: B (a MIC of from 1 to 10 is assigned the letter B); Fold increase in MIC, E. coli MG1655 S83L (E. coli MG1655 S83L): 1 fold; MIC, Ec NCTC 13476 (E. coli NCTC 13476): A (an MIC (in μg/mL) of less or equal to 1 is assigned the letter A); MIC, Ec ATCC BAA 2452 (E. coli ATCC BAA-2452): A (an MIC (in μg/mL) of less or equal to 1 is assigned the letter A); MIC, Pa ATCC 27853 [2]: B (a MIC of from 1 to 10 is assigned the letter B); MIC, Ec MG1655 WT (E. coli MG1655; Escherichia coli MG1655 WT, 16-20 h, mode of three independent experiments): A (an MIC (in μg/mL) of less or equal to 1 is assigned the letter A); MIC, Sp ATCC 49619 [3]: A (an MIC (in μg/mL) of less or equal to 1 is assigned the letter A); IC50 (μg/mL) HepG2 ([4]; HepG2 cell viability, 24 h, CellTiter-Glo): A (an IC50 of over 100 is assigned the letter A); MIC, Sa ATCC 29213 [5]: A (an MIC (in μg/mL) of less or equal to 1 is assigned the letter A); Fold increase in MIC, E. coli MG1655 D87G (E. coli MG1655 D87G): 2 fold; MIC, Ec ATCC 25922 [6]: A (an MIC (in μg/mL) of less or equal to 1 is assigned the letter A); MIC, Ab NCTC 13420 [7]: B (a MIC of from 1 to 10 is assigned the letter B); MIC, Ab ATCC 19606 [8]: B (a MIC of from 1 to 10 is assigned the letter B); MIC, Hi ATCC 49247 [9]: A (an MIC (in μg/mL) of less or equal to 1 is assigned the letter A)
COc1ccc2ccc(=O)n(CCN[C@H]3CC[C@H]4[C@H](C3)OC(=O)N4c3ncc4c(n3)NC(=O)CO4)c2n1 [Compound 67, 1-(2-{[(3aS,6S,7aS)-2-oxo-3-{7-oxo-6H,7H,8H-pyrimido[5,4-b][1,4]oxazin-2-yl}-octahydro-1,3-benzoxazol-6-yl]amino}ethyl)-7-methoxy-1,2-dihydro-1,8-naphthyridin-2-one] | 1 to 10 µg/mL (≈ 1.97 to 19.7 µM) | 1 fold | 1 to 10 µg/mL (≈ 1.97 to 19.7 µM) | 1 to 10 µg/mL (≈ 1.97 to 19.7 µM) | 1 to 10 µg/mL (≈ 1.97 to 19.7 µM) | < 1 µg/mL | < 1 µg/mL | > 100 µg/mL | < 1 µg/mL | 1 fold | < 1 µg/mL | < 1 µg/mL | 1 to 10 µg/mL (≈ 1.97 to 19.7 µM) | < 1 µg/mL | –
